The source of these data is ChEMBL document CHEMBL1121950, “Species- or isozyme-specific enzyme inhibitors. 9. Selective effects in inhibitions of rat pyruvate kinase isozymes by adenosine 5'-diphosphate derivatives” (J Med Chem, 1982).

The target of experiment [1] is T1, Pyruvate kinase PKM (Rattus norvegicus, UniProt P11980). The experiment can be described thus: Inhibition of rat muscle pyruvate kinase (PK-M).
The target of experiment [2] is T2, Pyruvate kinase PKLR (Rattus norvegicus, UniProt P12928). The experiment can be described thus: Inhibitory constant for inhibition of pyruvate kinase obtained from rat liver (PK-L) was determined using ADP as competitive inhibitor.
Experiment [3] deals with T1, Pyruvate kinase PKM. The experiment can be described thus: Inhibition of rat muscle pyruvate kinase (PK-M) at 10 mM.
For experiment [4], the target named is T2, Pyruvate kinase PKLR. The experiment can be described thus: Inhibition of rat liver pyruvate kinase (PK-L) at 10.7 mM.
The target of experiment [5] is T1, Pyruvate kinase PKM. The experiment can be described thus: Inhibition of rat muscle pyruvate kinase (PK-M) at 6.7 mM.
The target of experiment [6] is T2, Pyruvate kinase PKLR. Briefly: Inhibition of rat liver pyruvate kinase (PK-L) at 3.6 mM.
In experiment [7] the target is T2, Pyruvate kinase PKLR. Briefly: Inhibition of rat liver pyruvate kinase (PK-L) at 7.2 mM.
Experiment [8] deals with T2, Pyruvate kinase PKLR. Briefly: Inhibition of rat kidney pyruvate kinase (PK-L).
Experiment [9] has as its target T2, Pyruvate kinase PKLR. The experiment can be described thus: Inhibition of rat liver pyruvate kinase (PK-L); (relative inhibitory potency).

Several values for one entry are separate records, joined by “and”; a condition that tells them apart may be missing. Equal entries are not always repeated.

T2 sequence (P12928 whole entry): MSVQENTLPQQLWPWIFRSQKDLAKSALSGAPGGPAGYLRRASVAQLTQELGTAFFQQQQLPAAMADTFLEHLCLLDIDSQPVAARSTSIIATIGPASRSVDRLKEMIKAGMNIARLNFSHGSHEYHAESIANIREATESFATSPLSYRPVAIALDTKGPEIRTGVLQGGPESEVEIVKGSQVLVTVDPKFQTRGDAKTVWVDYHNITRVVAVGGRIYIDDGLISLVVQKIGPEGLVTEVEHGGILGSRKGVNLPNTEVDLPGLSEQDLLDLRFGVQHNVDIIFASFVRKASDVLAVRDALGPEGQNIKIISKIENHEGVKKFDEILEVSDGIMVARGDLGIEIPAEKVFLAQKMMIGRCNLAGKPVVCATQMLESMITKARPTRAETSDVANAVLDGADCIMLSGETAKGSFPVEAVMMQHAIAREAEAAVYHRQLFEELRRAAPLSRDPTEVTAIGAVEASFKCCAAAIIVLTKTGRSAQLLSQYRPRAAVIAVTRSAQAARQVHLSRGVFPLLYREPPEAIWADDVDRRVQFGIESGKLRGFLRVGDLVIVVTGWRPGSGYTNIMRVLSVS
T1 sequence (P11980 whole entry): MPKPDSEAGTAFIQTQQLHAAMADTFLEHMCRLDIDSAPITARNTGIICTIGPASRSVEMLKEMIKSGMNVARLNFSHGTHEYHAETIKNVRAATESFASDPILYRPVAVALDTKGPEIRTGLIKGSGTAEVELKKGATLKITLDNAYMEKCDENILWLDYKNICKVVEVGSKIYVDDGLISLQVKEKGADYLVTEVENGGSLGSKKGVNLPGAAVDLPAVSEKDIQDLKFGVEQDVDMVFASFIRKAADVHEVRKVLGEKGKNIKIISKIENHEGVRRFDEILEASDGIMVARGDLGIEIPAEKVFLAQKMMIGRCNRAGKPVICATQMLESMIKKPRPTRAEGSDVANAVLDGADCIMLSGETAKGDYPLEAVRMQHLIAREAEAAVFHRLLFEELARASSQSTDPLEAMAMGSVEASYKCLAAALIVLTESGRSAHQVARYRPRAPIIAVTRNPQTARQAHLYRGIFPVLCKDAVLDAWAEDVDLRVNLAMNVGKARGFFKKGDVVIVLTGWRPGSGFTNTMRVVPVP

What is called Ki is a dissociation constant, usually derived from enzyme kinetics or from competition with a known ligand. A high value points to a looser hold on the target. For the compound `CCSc1nc2c(N)ncnc2n1C1O[C@H](COP(=O)(O)OP(=O)(O)O)[C@@H](O)[C@H]1O` (some centres not stated), the inhibition constant (Ki) was determined as 3.7 mM at Pyruvate kinase PKM [1] and 8.4 mM at Pyruvate kinase PKLR [2].

Turning to `C[C@@H](OP(=O)(O)OP(=O)(O)O)[C@H]1OC(n2cnc3c(N)ncnc32)[C@H](O)[C@@H]1O` (some centres not stated), the inhibition constant (Ki) at Pyruvate kinase PKM [3] came out at 4.5 mM; on Pyruvate kinase PKLR [4], 5.4 mM; at Pyruvate kinase PKM [5], 7 mM.

Consider `CCNc1nc2c(N)ncnc2n1C1O[C@H](COP(=O)(O)OP(=O)(O)O)[C@@H](O)[C@H]1O` (some centres not stated), for which the Ki on Pyruvate kinase PKM [1] was 0.5 mM and 0.87 mM; at Pyruvate kinase PKLR [2], 2.2 mM and 3.9 mM.

In the case of `CSc1nc2c(N)ncnc2n1C1O[C@H](COP(=O)(O)OP(=O)(O)O)[C@@H](O)[C@H]1O` (some centres not stated), the inhibition constant (Ki) on Pyruvate kinase PKM [1] came out at 4.3 mM; on Pyruvate kinase PKLR [2], 7.5 mM.

For the compound `CO[C@H]1[C@@H](O)[C@H](n2cnc3c(N)ncnc32)O[C@@H]1COP(=O)(O)OP(=O)(O)O`, the inhibitory constant (Ki) at Pyruvate kinase PKM [1] came out at 9.3 mM; on Pyruvate kinase PKLR [2], 32 mM.

In the case of `CC1O[C@@H]2[C@H](O1)[C@@H](COP(=O)(O)OP(=O)(O)O)O[C@H]2n1cnc2c(N)ncnc21` (some centres not stated), the Ki on Pyruvate kinase PKM [1] was determined as 1.6 mM; at Pyruvate kinase PKLR [6] it was 4.6 mM; on Pyruvate kinase PKLR [7] it was 2.2 mM.

As to `CCCNc1nc2c(N)ncnc2n1C1O[C@H](COP(=O)(O)OP(=O)(O)O)[C@@H](O)[C@H]1O` (some centres not stated), the Ki was 1.6 mM at Pyruvate kinase PKLR [8], 0.9 mM at Pyruvate kinase PKM [1] and 3.8 mM on Pyruvate kinase PKLR [9].
